Test results reported in patent US11291200B2, “Application of viable cell monitor to cryopreservation of plant cells” (EAST CHINA UNIVERSITY OF SCIENCE AND TECHNOLOGY, priority 2016, dated 2022).

Tests used:
[1] = tested on: suspension cells from Siraitia grosvenorii; test: Cell viability evaluation by viable cell monitor (viable cell capacitance, viability preservation rate after cryopreservation); format: cell-based; conditions: for A1 (viable cell capacitance of the pre-treated cell): before freezing; for A3 (basal capacitance of the cell): cell death totally; for A2 (viable cell capacitance after resuscitation) / Viability preservation rate: -80° C. 24 h
Protocol: Taking a certain number of cells in the logarithmic growth phase for centrifugation (or sedimentation) and adding an equal amount of pre-treatment fluids after removing the supernatant. […] Pre-treated cells are centrifuged. Adding cryoprotectants after removing the supernatant and incubating at 0-4° C. and 110 rpm for 45 min. After incubation, the cells are first cooled at −20° C. for 40 min and then cooled in the −80° C. cryogenic refrigerator. Frozen cells are thawed in a water bath at 39° C., for 2-3 min. […] Mixing evenly the suspension cells and then measuring the capacitance of viable cells with a viable cell monitor. The viable cell capacitance of the pre-treated cell is denoted as A1; the viable cell capacitance after resuscitation is denoted as A2; and the basal capacitance of the cell is denoted as A3 (capacitance when cell death totally). […] The basic capacitance of cells: the cell suspension is boiled in boiling water for 1 h, and then subjected to ultrasonication for 40 min. The capacitance measured is the basic capacitance.

[2] = tested on: suspension cells from Siraitia grosvenorii; test: Measurement of mitochondrial activity (TTC) after cryopreservation; format: cell-based; conditions: for TTC value/100 mg of cells: -80° C. 24 h; for TTC value score: per-level statistic of Table 1
Protocol: After mixing evenly, performing dark culture at 25° C. for 16 h. After the dark culture, the supernatant is removed by centrifugation and the cells are washed with distilled water three times. Adding with 4 mL of methanol and placing in a 60° C. water bath for 50 min, gently blow twice with a pipette tip until the cells have detached to colourless.

[3] = pre-treatment agent 0.2M, frozen medium liquid medium+10% DMSO+10% sucrose
[4] = pre-treatment agent 0.35M, frozen medium liquid medium+10% DMSO+10% sucrose
[5] = pre-treatment agent 0.5M, frozen medium liquid medium+10% DMSO+10% sucrose
[6] = Siraitia grosvenorii, 45 min, 5 %
[7] = Siraitia grosvenorii, 45 min, 10 %
[8] = 0.2 M sucrose as pre-treatment agent, cryoprotectant liquid medium+10% DMSO+10% sucrose, compared with the control without pre-treatment
[9] = 0.2 M sucrose pre-treatment time 1 h
[10] = 0.2 M sucrose pre-treatment time 1 h, liquid medium+10% DMSO+10% sucrose
[11] = 0.2 M sucrose pre-treatment time 2 h
[12] = 0.2 M sucrose pre-treatment time 2 h, liquid medium+10% DMSO+10% sucrose
[13] = 0.2 M sucrose pre-treatment time 5 h
[14] = 0.2 M sucrose pre-treatment time 5 h, liquid medium+10% DMSO+10% sucrose
[15] = 0.2 M sucrose pre-treatment time 9 h
[16] = 0.2 M sucrose pre-treatment time 9 h, liquid medium+10% DMSO+10% sucrose
[17] = 0.2 M sucrose pre-treatment time 22 h
[18] = 0.2 M sucrose pre-treatment time 22 h, liquid medium+10% DMSO+10% sucrose
[19] = 0.2 M sucrose pre-treatment time 46 h
[20] = 0.2 M sucrose pre-treatment time 46 h, liquid medium+10% DMSO+10% sucrose

With `OC[C@H]1O[C@H](O[C@H]2O[C@H](CO)[C@@H](O)[C@H](O)[C@H]2O)[C@H](O)[C@@H](O)[C@@H]1O` [Trehalose, trehalose] the “A1 (viable cell capacitance of the pre-treated cell)” value ([1]; pre-treatment agent 0.2M) was 41.05 pF/cm, the “A3 (basal capacitance of the cell)” value ([1]; pre-treatment agent 0.2M) was 7.77 pF/cm and the “A2 (viable cell capacitance after resuscitation)” value [1, 3] was 23.40 pF/cm. For the same molecule, the Viability preservation rate [1, 3] was 46.97%, the “A1 (viable cell capacitance of the pre-treated cell)” value ([1]; pre-treatment agent 0.35M) was 34.06 pF/cm and the “A3 (basal capacitance of the cell)” value ([1]; pre-treatment agent 0.35M) was 7.09 pF/cm. For the same molecule, the “A2 (viable cell capacitance after resuscitation)” value [1, 4] was 18.80 pF/cm, the Viability preservation rate [1, 4] was 43.42% and the “A1 (viable cell capacitance of the pre-treated cell)” value ([1]; pre-treatment agent 0.5M) was 21.20 pF/cm. For the same molecule, the “A3 (basal capacitance of the cell)” value ([1]; pre-treatment agent 0.5M) was 5.50 pF/cm, the “A2 (viable cell capacitance after resuscitation)” value [1, 5] was 10.65 pF/cm and the Viability preservation rate [1, 5] was 32.80%. For the same molecule, the “TTC value/100 mg of cells” value [2, 3] was 0.767, the “TTC value/100 mg of cells” value [2, 4] was 0.841 and the “TTC value/100 mg of cells” value [2, 5] was 0.224.
For `C[S+](C)[O-]` [DMSO, dimethyl sulfoxide], the “Viability preservation rate score” value [1, 6] was 35.90%, the “Viability preservation rate score” value [1, 7] was 37.09% and the TTC value score ([2]; cryoprotectant level 5%) was 0.633. It also gave a TTC value score ([2]; cryoprotectant level 10%) of 0.792.
In the case of `OC[C@H]1O[C@@](CO)(O[C@H]2O[C@H](CO)[C@@H](O)[C@H](O)[C@H]2O)[C@@H](O)[C@@H]1O` [Sucrose, sucrose], the “increase of cell viability preservation rate” value [1, 8] is reported as 29.18%, the “A1 (viable cell capacitance of the pre-treated cell)” value [1, 9] is reported as 62.11 pF/cm and the “A3 (basal capacitance of the cell)” value [1, 9] is reported as 8.41 pF/cm. For the same molecule, the “A2 (viable cell capacitance after resuscitation)” value [1, 10] was 14.46 pF/cm, the “A1 (viable cell capacitance of the pre-treated cell)” value [1, 11] was 61.68 pF/cm and the “A3 (basal capacitance of the cell)” value [1, 11] was 8.78 pF/cm. For the same molecule, the “A2 (viable cell capacitance after resuscitation)” value [1, 12] was 15.63 pF/cm, the “A1 (viable cell capacitance of the pre-treated cell)” value [1, 13] was 61.19 pF/cm and the “A3 (basal capacitance of the cell)” value [1, 13] was 11.09 pF/cm. For the same molecule, the “A2 (viable cell capacitance after resuscitation)” value [1, 14] was 21.21 pF/cm, the “A1 (viable cell capacitance of the pre-treated cell)” value [1, 15] was 58.51 pF/cm and the “A3 (basal capacitance of the cell)” value [1, 15] was 11.3 pF/cm. For the same molecule, the “A2 (viable cell capacitance after resuscitation)” value [1, 16] was 25.85 pF/cm, the “A1 (viable cell capacitance of the pre-treated cell)” value [1, 17] was 56.48 pF/cm and the “A3 (basal capacitance of the cell)” value [1, 17] was 10.43 pF/cm. The “A2 (viable cell capacitance after resuscitation)” value [1, 18] was 22.86 pF/cm, the “A1 (viable cell capacitance of the pre-treated cell)” value [1, 19] was 45.92 pF/cm and the “A3 (basal capacitance of the cell)” value [1, 19] was 10.94 pF/cm. For the same molecule, the “A2 (viable cell capacitance after resuscitation)” value [1, 20] was 14.60 pF/cm, the “Viability preservation rate score” value [1, 6] was 31.15% and the “Viability preservation rate score” value [1, 7] was 42.98%. For the same molecule, the “A1 (viable cell capacitance of the pre-treated cell)” value ([1]; pre-treatment agent 0.2M) was 42.25 pF/cm, the “A3 (basal capacitance of the cell)” value ([1]; pre-treatment agent 0.2M) was 10.00 pF/cm and the “A2 (viable cell capacitance after resuscitation)” value [1, 3] was 26.44 pF/cm. For the same molecule, the “A1 (viable cell capacitance of the pre-treated cell)” value ([1]; pre-treatment agent 0.35M) was 30.55 pF/cm, the “A3 (basal capacitance of the cell)” value ([1]; pre-treatment agent 0.35M) was 8.49 pF/cm and the “A2 (viable cell capacitance after resuscitation)” value [1, 4] was 17.01 pF/cm. The “A1 (viable cell capacitance of the pre-treated cell)” value ([1]; pre-treatment agent 0.5M) was 24.62 pF/cm, the “A3 (basal capacitance of the cell)” value ([1]; pre-treatment agent 0.5M) was 6.03 pF/cm and the “A2 (viable cell capacitance after resuscitation)” value [1, 5] was 11.81 pF/cm. The “increase of mitochondrial activity (TTC value)” value [2, 8] was 36.72%, the “TTC value/100 mg of cells” value [2, 10] was 0.195 and the “TTC value/100 mg of cells” value [2, 12] was 0.201. The “TTC value/100 mg of cells” value [2, 14] was 0.225, the “TTC value/100 mg of cells” value [2, 16] was 0.376 and the “TTC value/100 mg of cells” value [2, 18] was 0.319. For the same molecule, the “TTC value/100 mg of cells” value [2, 20] was 0.106, the TTC value score ([2]; cryoprotectant level 5%) was 0.506 and the TTC value score ([2]; cryoprotectant level 10%) was 0.847. The “TTC value/100 mg of cells” value [2, 3] was 0.916, the “TTC value/100 mg of cells” value [2, 4] was 0.479 and the “TTC value/100 mg of cells” value [2, 5] was 0.232.
For `OC[C@@H](O)[C@@H](O)[C@H](O)[C@@H](O)CO` [sorbitol], the “Viability preservation rate score” value ([1]; cryoprotectant level 5%, per-level statistic of Table 1) was 31.20%, the “Viability preservation rate score” value ([1]; cryoprotectant level 10%, per-level statistic of Table 1) was 40.65% and the TTC value score ([2]; cryoprotectant level 5%) was 0.652. The TTC value score ([2]; cryoprotectant level 10%) was 0.846.
